According to the supplement of paper PMC11061612:

Experiments:
Assay in all cases: combination Emax (second highest fraction inhibited in the dose matrix, 72 h); higher = more inhibition; extreme values may be limits of the assay
[1] = tested on: RKN (Other Solid Carcinomas)
Method in brief: (§1)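 Cell lines grown in DMEM/F12 or RPMI with 10% FBS were plated in 1536-well plates and held 24 hours at 37°C, 5% CO2 before 72 hours of exposure to two-drug dose matrices, with DMSO typically at 0.2%. CellTiter-Glo 2.0 luminescence gave viability, which was converted to inhibition. Vehicle wells were set to 0 and blank wells to 1. Combination Emax is the second-highest inhibition in the matrix, and Bliss excess is the observed combination effect minus the expected EA + EB − EA·EB, where EA and EB are the single-agent effects.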

[2] = tested on: L-1236 (Hodgkin's Lymphoma)
Method in brief: as §1

[3] = tested on: MKN45 (Gastric Carcinoma)
Method in brief: as §1

[4] = tested on: FADU (Head and Neck Carcinoma)
Method in brief: as §1

[5] = tested on: NCI-H446 (Small Cell Lung Carcinoma)
Method in brief: as §1

[6] = tested on: HSC-39 (Gastric Carcinoma)
Method in brief: as §1

[7] = tested on: HCT-15 (Colorectal Carcinoma)
Method in brief: as §1

[8] = tested on: A2058 (Melanoma)
Method in brief: as §1

[9] = tested on: GB-1 (Glioblastoma)
Method in brief: as §1

[10] = tested on: OVMIU (Ovarian Carcinoma)
Method in brief: as §1

[11] = tested on: RCM-1 (Colorectal Carcinoma)
Method in brief: as §1

[12] = tested on: OPM-2 (Plasma Cell Myeloma)
Method in brief: as §1

[13] = tested on: GP5d (Colorectal Carcinoma)
Method in brief: as §1

[14] = tested on: TE-8 (Esophageal Squamous Cell Carcinoma)
Method in brief: as §1

[15] = tested on: RERF-GC-1B (Gastric Carcinoma)
Method in brief: as §1

[16] = tested on: PC-3_[JPC-3] (Lung Adenocarcinoma)
Method in brief: as §1

[17] = tested on: VAL (B-Cell Non-Hodgkin's Lymphoma)
Method in brief: as §1

[18] = tested on: PSN1 (Pancreatic Carcinoma)
Method in brief: as §1

[19] = tested on: SHP-77 (Small Cell Lung Carcinoma)
Method in brief: as §1

[20] = tested on: SU-DHL-10 (B-Cell Non-Hodgkin's Lymphoma)
Method in brief: as §1

COc1cccc2c1C(=O)c1c(O)c3c(c(O)c1C2=O)C[C@@](O)(C(=O)CO)C[C@@H]3O[C@H]1C[C@H](N)[C@H](O)[C@H](C)O1 [Doxorubicin] + Cc1cc2ncnn2cc1Nc1ncc2c(n1)n(C1CCOCC1)c(=O)n2C [AZD7648] (first compound max 1 µM, 7x7, partner max 10 µM)
combination Emax [1]: 0.693
combination Emax [2]: 0.682
combination Emax [3]: 0.821
combination Emax [4]: 0.928
combination Emax [5]: 0.923
combination Emax [6]: 0.867
combination Emax [7]: 0.742
combination Emax [8]: 0.583
combination Emax [9]: 0.418
combination Emax [10]: 0.861
combination Emax [11]: 0.605
combination Emax [12]: 0.845
combination Emax [13]: 0.693
combination Emax [14]: 0.774
combination Emax [15]: 0.779
combination Emax [16]: 0.57
combination Emax [17]: 1
combination Emax [18]: 0.788
combination Emax [19]: 0.562
combination Emax [20]: 0.975

Cc1cc2ncnn2cc1Nc1ncc2c(n1)n(C1CCOCC1)c(=O)n2C [AZD7648] + CCN(CCO)CCCOc1ccc2c(Nc3cc(CC(=O)Nc4cccc(F)c4)[nH]n3)ncnc2c1 [AZD2811] (first compound max 10 µM, 7x7, partner max 1 µM)
combination Emax [1]: 0.211
combination Emax [2]: 0.384
combination Emax [3]: 0.446
combination Emax [4]: 0.263
combination Emax [5]: 0.834
combination Emax [6]: 0.939
combination Emax [7]: 0.455
combination Emax [8]: 0.247
combination Emax [9]: 0.166
combination Emax [10]: 0.444
combination Emax [11]: 0.316
combination Emax [12]: 0.605
combination Emax [13]: 0.478
combination Emax [14]: 0.354
combination Emax [15]: 0.281
combination Emax [16]: 0.319
combination Emax [17]: 0.798
combination Emax [18]: 0.397
combination Emax [19]: 0.258
combination Emax [20]: 0.899

COc1cccc(OCCCN)c1-c1cc(Nc2cnc(C#N)cn2)n[nH]1 [Prexasertib] + O=C(c1cc(Cc2n[nH]c(=O)c3ccccc23)ccc1F)N1CCN(C(=O)C2CC2)CC1 [Olaparib] (first compound max 1 µM, 7x7, partner max 10 µM)
combination Emax [1]: 0.678
combination Emax [2]: 0.831
combination Emax [3]: 0.854
combination Emax [4]: 0.897
combination Emax [5]: 0.963
combination Emax [6]: 1
combination Emax [7]: 0.883
combination Emax [8]: 0.508
combination Emax [9]: 0.439
combination Emax [10]: 0.592
combination Emax [11]: 0.596
combination Emax [12]: 0.943
combination Emax [13]: 0.945
combination Emax [14]: 0.902
combination Emax [15]: 0.552
combination Emax [16]: 0.31
combination Emax [17]: 0.93
combination Emax [18]: 0.456
combination Emax [19]: 0.819
combination Emax [20]: 1

CC1(C)CCC(CN2CCN(c3ccc(C(=O)NS(=O)(=O)c4ccc(NCC5CCOCC5)c([N+](=O)[O-])c4)c(Oc4cnc5[nH]ccc5c4)c3)CC2)=C(c2ccc(Cl)cc2)C1 [Venetoclax] + Cc1cc2ncnn2cc1Nc1ncc2c(n1)n(C1CCOCC1)c(=O)n2C [AZD7648] (first compound max 1 µM, 7x7, partner max 10 µM)
combination Emax [1]: 0.157
combination Emax [2]: 0.621
combination Emax [3]: 0.588
combination Emax [4]: 0.237
combination Emax [5]: 0.403
combination Emax [6]: 0.936
combination Emax [7]: 0.229
combination Emax [8]: 0.203
combination Emax [9]: 0.135
combination Emax [10]: 0.374
combination Emax [11]: 0.362
combination Emax [12]: 0.642
combination Emax [13]: 0.374
combination Emax [14]: 0.401
combination Emax [15]: 0.28
combination Emax [16]: 0.297
combination Emax [17]: 1
combination Emax [18]: 0.37
combination Emax [19]: 0.34
combination Emax [20]: 0.249

Cc1cc2ncnn2cc1Nc1ncc2c(n1)n(C1CCOCC1)c(=O)n2C [AZD7648] + CN(C)CCCOc1ccc(-c2ccc3ncc4c(c3c2)n(C2CCOCC2)c(=O)n4C)cn1 [AZD0156] (first compound max 10 µM, 7x7, partner max 1 µM)
combination Emax [1]: 0.194
combination Emax [2]: 0.306
combination Emax [3]: 0.428
combination Emax [4]: 0.111
combination Emax [5]: 0.309
combination Emax [6]: 0.215
combination Emax [7]: 0.267
combination Emax [8]: 0.182
combination Emax [9]: 0.19
combination Emax [10]: 0.474
combination Emax [11]: 0.201
combination Emax [12]: 0.556
combination Emax [13]: 0.293
combination Emax [14]: 0.325
combination Emax [15]: 0.29
combination Emax [16]: 0.31
combination Emax [17]: 0.53
combination Emax [18]: 0.38
combination Emax [19]: 0.223
combination Emax [20]: 0.302

CC(=O)c1c(C)c2cnc(Nc3ccc(N4CCNCC4)cn3)nc2n(C2CCCC2)c1=O [Palbociclib] + Cc1c2c(nn1C)CSCc1cc(n(C)n1)CSc1cc(c3ccccc3c1)OCCCc1c(C(=O)O)n(C)c3c-2c(Cl)ccc13 [AZD5991] (first compound max 10 µM, 7x7, partner max 1 µM)
combination Emax [1]: 0.151
combination Emax [2]: 0.782
combination Emax [3]: 0.498
combination Emax [4]: 0.888
combination Emax [5]: 0.556
combination Emax [6]: 0.995
combination Emax [7]: 0.532
combination Emax [8]: 0.753
combination Emax [9]: 0.238
combination Emax [10]: 0.27
combination Emax [11]: 0.327
combination Emax [12]: 1
combination Emax [13]: 0.881
combination Emax [14]: 0.427
combination Emax [15]: 0.784
combination Emax [16]: 0.241
combination Emax [17]: 0.717
combination Emax [18]: 0.564
combination Emax [19]: 0.646
combination Emax [20]: 1

C[C@@H](c1ccc2nccn2c1)n1nnc2ncc(-c3cnn(C)c3)nc21 [Savolitinib] + CC1(C)CCC(CN2CCN(c3ccc(C(=O)NS(=O)(=O)c4ccc(NCC5CCOCC5)c([N+](=O)[O-])c4)c(Oc4cnc5[nH]ccc5c4)c3)CC2)=C(c2ccc(Cl)cc2)C1 [Venetoclax] (first compound max 1 µM, 7x7, partner max 1 µM)
combination Emax [1]: 0.195
combination Emax [2]: 0.416
combination Emax [3]: 0.831
combination Emax [4]: 0.154
combination Emax [5]: 0.277
combination Emax [6]: 0.197
combination Emax [7]: 0.12
combination Emax [8]: 0.107
combination Emax [9]: 0.109
combination Emax [10]: 0.284
combination Emax [11]: 0.121
combination Emax [12]: 0.246
combination Emax [13]: 0.141
combination Emax [14]: 0.229
combination Emax [15]: 0.128
combination Emax [16]: 0.129
combination Emax [17]: 0.963
combination Emax [18]: 0.12
combination Emax [19]: 0.314
combination Emax [20]: 0.0782

CC(=O)c1c(C)c2cnc(Nc3ccc(N4CCNCC4)cn3)nc2n(C2CCCC2)c1=O [Palbociclib] + CC1(C)CCC(CN2CCN(c3ccc(C(=O)NS(=O)(=O)c4ccc(NCC5CCOCC5)c([N+](=O)[O-])c4)c(Oc4cnc5[nH]ccc5c4)c3)CC2)=C(c2ccc(Cl)cc2)C1 [Venetoclax] (first compound max 10 µM, 7x7, partner max 1 µM)
combination Emax [1]: 0.102
combination Emax [2]: 0.611
combination Emax [3]: 0.486
combination Emax [4]: 0.17
combination Emax [5]: 0.462
combination Emax [6]: 0.633
combination Emax [7]: 0.526
combination Emax [8]: 0.0912
combination Emax [9]: 0.15
combination Emax [10]: 0.149
combination Emax [11]: 0.394
combination Emax [12]: 0.38
combination Emax [13]: 0.31
combination Emax [14]: 0.286
combination Emax [15]: 0.0488
combination Emax [16]: 0.176
combination Emax [17]: 0.997
combination Emax [18]: 0.437
combination Emax [19]: 0.671
combination Emax [20]: 1

Cc1c2c(nn1C)CSCc1cc(n(C)n1)CSc1cc(c3ccccc3c1)OCCCc1c(C(=O)O)n(C)c3c-2c(Cl)ccc13 [AZD5991] + Cn1cnc2c(F)c(Nc3ccc(Br)cc3Cl)c(C(=O)NOCCO)cc21 [Selumetinib] (first compound max 1 µM, 7x7, partner max 3 µM)
combination Emax [1]: 0.292
combination Emax [2]: 0.297
combination Emax [3]: 0.508
combination Emax [4]: 1
combination Emax [5]: 0.563
combination Emax [6]: 1
combination Emax [7]: 0.301
combination Emax [8]: 0.991
combination Emax [9]: 0.174
combination Emax [10]: 0.383
combination Emax [11]: 0.651
combination Emax [12]: 1
combination Emax [13]: 1
combination Emax [14]: 0.415
combination Emax [15]: 0.998
combination Emax [16]: 0.269
combination Emax [17]: 0.724
combination Emax [18]: 0.67
combination Emax [19]: 0.598
combination Emax [20]: 1

CS(=O)(=O)CCNCc1ccc(-c2ccc3ncnc(Nc4ccc(OCc5cccc(F)c5)c(Cl)c4)c3c2)o1 [Lapatinib] + C[C@@H](Oc1cc(-c2cnn(C3CCNCC3)c2)cnc1N)c1c(Cl)ccc(F)c1Cl [Crizotinib] (first compound max 10 µM, 7x7, partner max 10 µM)
combination Emax [1]: 0.294
combination Emax [2]: 0.984
combination Emax [3]: 0.913
combination Emax [4]: 0.931
combination Emax [5]: 0.965
combination Emax [6]: 0.981
combination Emax [7]: 0.925
combination Emax [8]: 0.991
combination Emax [9]: 0.843
combination Emax [10]: 0.969
combination Emax [11]: 0.865
combination Emax [12]: 0.944
combination Emax [13]: 0.979
combination Emax [14]: 0.71
combination Emax [15]: 0.951
combination Emax [16]: 0.922
combination Emax [17]: 0.808
combination Emax [18]: 0.806
combination Emax [19]: 0.817
combination Emax [20]: 1

CC1(C)CCC(CN2CCN(c3ccc(C(=O)NS(=O)(=O)c4ccc(NCC5CCOCC5)c([N+](=O)[O-])c4)c(Oc4cnc5[nH]ccc5c4)c3)CC2)=C(c2ccc(Cl)cc2)C1 [Venetoclax] + COc1cc(Nc2ncc3c(n2)-c2ccc(Cl)cc2C(c2c(F)cccc2OC)=NC3)ccc1C(=O)O [Alisertib] (first compound max 1 µM, 7x7, partner max 10 µM)
combination Emax [1]: 0.203
combination Emax [2]: 0.678
combination Emax [3]: 0.563
combination Emax [4]: 0.351
combination Emax [5]: 0.909
combination Emax [6]: 0.992
combination Emax [7]: 0.537
combination Emax [8]: 0.612
combination Emax [9]: 0.478
combination Emax [10]: 0.522
combination Emax [11]: 0.372
combination Emax [12]: 0.828
combination Emax [13]: 0.498
combination Emax [14]: 0.673
combination Emax [15]: 0.688
combination Emax [16]: 0.686
combination Emax [17]: 1
combination Emax [18]: 0.526
combination Emax [19]: 0.719
combination Emax [20]: 0.827

CC1(C)CCC(CN2CCN(c3ccc(C(=O)NS(=O)(=O)c4ccc(NCC5CCOCC5)c([N+](=O)[O-])c4)c(Oc4cnc5[nH]ccc5c4)c3)CC2)=C(c2ccc(Cl)cc2)C1 [Venetoclax] + C[C@@H]1COCCN1C2=NC(=NC(=C2)C3(CC3)[S@](=N)(=O)C)C4=C5C=CNC5=NC=C4 [AZD6738] (first compound max 1 µM, 7x7, partner max 10 µM)
combination Emax [1]: 0.226
combination Emax [2]: 0.847
combination Emax [3]: 0.678
combination Emax [4]: 0.614
combination Emax [5]: 0.924
combination Emax [6]: 1
combination Emax [7]: 0.71
combination Emax [8]: 0.788
combination Emax [9]: 0.424
combination Emax [10]: 0.537
combination Emax [11]: 0.78
combination Emax [12]: 0.943
combination Emax [13]: 0.739
combination Emax [14]: 0.793
combination Emax [15]: 0.428
combination Emax [16]: 0.442
combination Emax [17]: 1
combination Emax [18]: 0.396
combination Emax [19]: 0.697
combination Emax [20]: 0.912
